“And” between values parts separate entries of the source, which are not always exact repeats. Identical values can stand only once. Inconclusive results and toxic doses are left out. Cut-off read from the data, not from the text of the source: active = T/C of 150% or more; inactive = T/C below 125%. Peptide text beside a SMILES is read from it. * marks the point of attachment. Cbz = O=C(OCc1ccccc1)*
Test system: L1210 leukemia ip in BDF1 mice, survival T/C
Test: NCI In Vivo Anticancer Drug Screen. Data for tumor model L1210 Leukemia (intraperitoneal) in B6D2F1 (BDF1) mice
Details: endpoint: mean survival time, higher = longer survival
Method in brief: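 Value reflects the ratio of survival in compound-treated mice to survival in vehicle-treated controls, with both groups carrying the same transplanted tumor.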

[1] = dose: 100.0 mg/kg/injection, schedule: Q01DX001 (ip), vehicle: saline
[2] = dose: 100.0 mg/kg/injection, schedule: Q01DX009 (ip), vehicle: saline
[3] = dose: 100.0 mg/kg/injection, schedule: Q04DX003 (ip), vehicle: saline
[4] = dose: 200.0 mg/kg/injection, schedule: Q01DX001 (ip), vehicle: saline
[5] = dose: 200.0 mg/kg/injection, schedule: Q01DX009 (ip), vehicle: saline
[6] = dose: 200.0 mg/kg/injection, schedule: Q04DX003 (ip), vehicle: saline
[7] = dose: 400.0 mg/kg/injection, schedule: Q01DX001 (ip), vehicle: saline
[8] = dose: 400.0 mg/kg/injection, schedule: Q01DX009 (ip), vehicle: saline
[9] = dose: 400.0 mg/kg/injection, schedule: Q04DX003 (ip), vehicle: saline
[10] = dose: 50.0 mg/kg/injection, schedule: Q04DX003 (ip), vehicle: saline with Tween-80
[11] = dose: 100.0 mg/kg/injection, schedule: Q04DX003 (ip), vehicle: saline with Tween-80
[12] = dose: 200.0 mg/kg/injection, schedule: Q04DX003 (ip), vehicle: saline with Tween-80
[13] = dose: 400.0 mg/kg/injection, schedule: Q04DX003 (ip), vehicle: saline with Tween-80

Measured: T/C

C#CCOC(=O)CCC(=O)OCC#C
inactive: [1] 103 % of control | [2] 94 % of control | [3] 94 % of control | [4] 100 % of control | [5] 97 % of control | [6] 96 % of control | [7] 100 % of control | [8] 94 % of control | [9] 98 % of control

O=C(CCN1CCC2CCC(C2)C1)c1ccccc1C(F)(F)F (stereo unspecified)
inactive: dose: 50.0 mg/kg/injection, schedule: Q01DX001 (ip), vehicle: carboxymethylcellulose (CMC) 101 % of control

CCN(CC)CCN(CC)C(=O)C1C(c2ccccc2)C1c1ccccc1 (stereo unspecified)
inactive: dose: 25.0 mg/kg/injection, schedule: Q04DX002 (ip), vehicle: Klucel (hydroxypropylcellulose) (HPC) 102 % of control | dose: 50.0 mg/kg/injection, schedule: Q04DX002 (ip), vehicle: Klucel (hydroxypropylcellulose) (HPC) 102 % of control

Nc1cccc(OCCOc2cccc(S(=O)(=O)F)c2)c1
inactive: [1] 95 % of control | [4] 93 % of control | [7] 90 % of control

O=C1C(Cl)=CC(=NS(=O)(=O)c2ccccc2)C=C1Cl
inactive: dose: 6.25 mg/kg/injection, schedule: Q01DX009 (ip), vehicle: saline with Tween-80 96 % of control | dose: 12.5 mg/kg/injection, schedule: Q01DX009 (ip), vehicle: saline with Tween-80 96 % of control

Nc1nc(N)c(-c2ccc(Cl)c(Cl)c2)c(/C=C/C=C/c2cccnc2)n1
inactive: dose: 16.7 mg/kg/injection, schedule: Q01DX009 (ip), vehicle: saline with Tween-80 112 % of control | dose: 37.5 mg/kg/injection, schedule: Q01DX009 (ip), vehicle: saline with Tween-80 86 % of control

O=[N+]([O-])c1cccc(S(=O)(=O)O)c1.[Fe]
inactive: [3] 95 % of control | [6] 89 % of control

c1ccc(CC23CCCCC2N3)cc1 (stereo unspecified)
inactive: dose: 50.0 mg/kg/injection, schedule: Q01DX009 (ip), vehicle: saline with Tween-80 95 % of control

COc1cccc2c1C(=O)c1c(O)c3c(c(O)c1C2=O)C[C@@](O)(C(C)=O)C[C@@H]3OC1CC(NC(=S)Nc2ccc(F)cc2)C(O)C(C)O1 (stereo partly specified)
inactive: dose: 0.25 mg/kg/injection, schedule: Q04DX003 (ip), vehicle: other 100 % of control | dose: 0.5 mg/kg/injection, schedule: Q04DX003 (ip), vehicle: other 98 % of control | dose: 1.0 mg/kg/injection, schedule: Q04DX003 (ip), vehicle: other 104 % of control | dose: 2.0 mg/kg/injection, schedule: Q04DX003 (ip), vehicle: other 100 % of control | dose: 4.0 mg/kg/injection, schedule: Q04DX003 (ip), vehicle: other 112 % of control | dose: 6.0 mg/kg/injection, schedule: Q01DX009 (ip), vehicle: water 111 % of control | dose: 8.0 mg/kg/injection, schedule: Q04DX003 (ip), vehicle: other 112 % of control | dose: 12.0 mg/kg/injection, schedule: Q01DX009 (ip), vehicle: water 114 % of control | dose: 14.0 mg/kg/injection, schedule: Q04DX003 (ip), vehicle: water 108 % of control | dose: 16.0 mg/kg/injection, schedule: Q04DX003 (ip), vehicle: other 109 % of control | dose: 21.0 mg/kg/injection, schedule: Q04DX003 (ip), vehicle: water 108 % of control | dose: 23.0 mg/kg/injection, schedule: Q01DX009 (ip), vehicle: water 108 % of control | dose: 24.0 mg/kg/injection, schedule: Q01DX009 (ip), vehicle: water 116 % of control | dose: 39.0 mg/kg/injection, schedule: Q01DX009 (ip), vehicle: water 109 % of control | dose: 48.0 mg/kg/injection, schedule: Q01DX009 (ip), vehicle: water 122 % of control | dose: 50.0 mg/kg/injection, schedule: Q04DX003 (ip), vehicle: water 120 % of control | dose: 65.0 mg/kg/injection, schedule: Q01DX009 (ip), vehicle: water 109 % of control | dose: 108.0 mg/kg/injection, schedule: Q01DX009 (ip), vehicle: water 119 % of control | dose: 180.0 mg/kg/injection, schedule: Q01DX009 (ip), vehicle: water 104 % of control

C/C=C/C(=O)NCC(=O)O
inactive: [1] 90 % of control | [4] 97 % of control | [7] 103 % of control

CCC(N)CC
inactive: dose: 75.0 mg/kg/injection, schedule: Q01DX009 (ip), vehicle: saline 104 % of control | [3] 105 % of control | dose: 150.0 mg/kg/injection, schedule: Q01DX009 (ip), vehicle: saline 96 % of control and 100 % of control | [6] 103 % of control

CCn1c(C)nccc1=O
inactive: dose: 37.5 mg/kg/injection, schedule: Q01DX001 (ip), vehicle: saline 101 % of control | dose: 75.0 mg/kg/injection, schedule: Q01DX001 (ip), vehicle: saline 101 % of control | dose: 150.0 mg/kg/injection, schedule: Q01DX001 (ip), vehicle: saline 100 % of control

O=[N+]([O-])c1ccc(/C=N/N2CCOCC2)s1
inactive: [3] 102 % of control | [6] 97 % of control | [9] 102 % of control

CN(C)N=Nc1ccc(S(N)(=O)=O)cc1
inactive: dose: 50.0 mg/kg/injection, schedule: Q01DX001 (ip), vehicle: saline with Tween-80 98 % of control | [10] 103 % of control and 105 % of control | dose: 100.0 mg/kg/injection, schedule: Q01DX001 (ip), vehicle: saline with Tween-80 102 % of control | [11] 103 % of control and 105 % of control | dose: 200.0 mg/kg/injection, schedule: Q01DX001 (ip), vehicle: saline with Tween-80 104 % of control | [12] 105 % of control | dose: 400.0 mg/kg/injection, schedule: Q01DX001 (ip), vehicle: saline with Tween-80 105 % of control | [13] 106 % of control and 112 % of control

OCC(I)C(CO)[n+]1ccccc1 (stereo unspecified)
inactive: dose: 12.5 mg/kg/injection, schedule: Q01DX009 (ip), vehicle: saline 104 % of control | dose: 12.5 mg/kg/injection, schedule: Q04DX003 (ip), vehicle: saline 102 % of control | dose: 25.0 mg/kg/injection, schedule: Q01DX009 (ip), vehicle: saline 110 % of control | dose: 25.0 mg/kg/injection, schedule: Q04DX003 (ip), vehicle: saline 100 % of control | dose: 50.0 mg/kg/injection, schedule: Q01DX009 (ip), vehicle: saline 101 % of control | dose: 50.0 mg/kg/injection, schedule: Q04DX003 (ip), vehicle: saline 102 % of control

CCCCOCCCO
inactive: [2] 91 % of control | [5] 92 % of control | [8] 95 % of control

CCOSc1ccc([N+](=O)[O-])cc1[N+](=O)[O-]
inactive: dose: 50.0 mg/kg/injection, schedule: Q01DX001 (ip), vehicle: saline 90 % of control | [1] 93 % of control | [4] 90 % of control | [7] 95 % of control

COC(=O)C(NC(=O)C1CCCN1C(=O)OCc1ccccc1)C(C)C (stereo not drawn) (Cbz-Pro-Val-OMe; configuration not given here)
inactive: dose: 25.0 mg/kg/injection, schedule: Q04DX003 (ip), vehicle: saline with Tween-80 95 % of control | [10] 95 % of control | [11] 106 % of control | [12] 95 % of control | [13] 94 % of control

C/C(=N/O)c1ccc(/C(C)=N/O)cc1
inactive: dose: 75.0 mg/kg/injection, schedule: Q01DX009 (ip), vehicle: saline with Tween-80 104 % of control | [11] 95 % of control | dose: 150.0 mg/kg/injection, schedule: Q01DX009 (ip), vehicle: saline with Tween-80 107 % of control | dose: 200.0 mg/kg/injection, schedule: Q01DX009 (ip), vehicle: saline with Tween-80 107 % of control | [12] 96 % of control | [13] 95 % of control

Source: PubChem BioAssay AID248 (DTP/NCI, 2004)
